Experimental data from patent publication US6432979B1, “Method of treating or inhibiting colonic polyps and colorectal cancer” (American Cyanamid Company, priority 1999, dated 2002).

Tested on: intestinal polyps (adenomas)
Assay: in vivo standard pharmacological test procedure emulating familial adenomatous polyps (FAP) using the Min mouse; polyp count
Design: species or system Min mouse (C57BL/6J-Min/+)
Details: for Number of Polyps: 60 days
Text: The procedure described below emulates familial adenomatous polyps (FAP) in humans using the Min mouse (C57BL/6J-Min/+), which is a strain which has lost […] copies of the APC gene. These animals develop multiple intestinal polyps (adenomas) that ultimately progress to form adenocarcinomas. The polyps that develop in Min mice express EGFR and have activated COX-2. […] The following briefly describes the procedure used and the results obtained in this standard pharmacological test procedure.
The animals were treated for 60 days. The food was weighed once per week to determine consumption, and the animals also weighed weekly. On day 61, the animals were euthanized with CO2 inhalation, and the entire intestinal tract from stomach to anus was removed. The intestinal tract was injected with Bouins fixative, and allowed to fix for several days. The intestinal tracts were then opened and the number of polyps counted. Statistical analysis was performed using the Student's t-Test; a p value of ≦0.05 is considered statistically significant.
The above standard pharmacological test procedure was run again using (4-dimethylamino-but-2-enoic acid [4-(3-chloro-4-fluoro-phenylamino)-3-cyano-7-ethoxy-quinolin-6-yl]-amide as a representative EGFR kinase inhibitor, as follows. Test animals were divided into four treatment groups: Group I, control; Group II, (4-dimethylamino-but-2-enoic acid [4-(3-chloro-4-fluoro-phenylamino)-3-cyano-7-ethoxy-quinolin-6-yl]-amide Group III, sulindac; and Group IV, combination of sulindac and (4-dimethylamino-but-2-enoic acid [4-(3-chloro-4-fluoro-phenylamino)-3-cyano-7-ethoxy-quinolin 6-yl]-amide. The test compound was blended with a standard murine chow and animals were given ad libitum access to the food, in quantities corresponding to the following approximate daily dosages: Group II—20 mg/kg/(4-dimethylamino-but-2-enoic acid [4-(3-chloro-4-fluoro-phenylamino)-3-cyano-7-ethoxy-quinolin-6-yl]-amide, Group III—5 mg/kg/day sulindac; and Group IV—20 mg/kg/(4-dimethylamino-but-2-enoic acid [4-(3-chloro-4-fluoro-phenylamino)-3-cyano-7-ethoxy-quinolin-6-yl]-amide and 5 mg/kg/day sulindac. The animals were treated for 60 days. The food was weighed once per week to determnine consumption, and the animals also weighed weekly. On day 61, the animals were euthanized with CO2 inhalation, and the entire intestinal tract from stomach to anus was removed. The intestinal tract was injected with Bouins fixative, and allowed to fix for several days. The intestinal tracts were then opened and the number of polyps counted. Statistical analysis was performed using the Students t-Test; a p value of ≦0.05 is considered statistically significant.

| Structure (SMILES) | Number of Polyps (first run, 40 mg/kg/day in chow, counted day 61, control 32.3 ± 20.7) | Number of Polyps (first run, 20 mg/kg/day sulindac in chow, counted day 61, control 32.3 ± 20.7) | Number of Polyps (third run, 5 mg/kg/day sulindac in chow, control 19.5 ± 14.1) | reduction of polyp numbers (in words) (third run, sulindac alone at the 5 mg/kg dose) |
| --- | --- | --- | --- | --- |
| CC#CC(=O)Nc1ccc2ncnc(Nc3cccc(Br)c3)c2c1 | 15.6 ± 10.6 | – | – | – |
| CC1=C(CC(=O)O)c2cc(F)ccc2/C1=C\c1ccc([S+](C)[O-])cc1 (stereo not shown) [sulindac] | – | 10.0 ± 6.6 | 20.6 ± 11.8 | did not reduce polyp numbers at all |
